Assay results as given in patent US20150125515A1, “NOVEL SP-B & SP-C PEPTIDES, SYNTHETIC LUNG SURFACTANTS, AND USE THEREOF” (UNIVERSITY OF ROCHESTER, priority 2012, published 2015).
Bridges are numbered along the chain shown (N, C = ends). Roman numbers before positions name the chains, in order. Where no end group is shown, it is not given here.

Experiments:
[1] = Adsorption of surfactant compositions to the air-water interface (surface pressure vs time, Wilhelmy method); type: physicochemical; settings: for adsorption, result in words: peptide 3% by weight with synthetic ester linked phospholipids 5:3:2 DPPC:POPC:POPG; for adsorption compared with lung surfactant (CLSE in Table 7): 3% by weight peptide with 5:3:2 (molar ratio) DPPC:POPC:POPG
Description: Surface activity of synthetic peptide/lipid surfactant compositions was assessed by either or both of the following methods: (1) measurement of the adsorption of surfactant compositions to the air-water interface as a function of time, and (2) measurement of overall dynamic surface activity on a pulsating bubble surfactometer (general methodological details of these two experimental techniques are described by Notter, Lung Surfactants: Basic Science and Clinical Applications, Marcel Dekker, Inc, New York (2000), which is hereby incorporated by reference in its entirety).
In adsorption studies, a given surfactant mixture was injected at time zero beneath the surface of a stirred surfactant-free subphase, and surface pressure (defined as surface tension lowering below that of the pure subphase) was measured as a function of time from the force on a hanging platinum slide (“Wilhelmy” method). By definition, higher surface pressure corresponds to lower surface tension (Notter, Lung Surfactants: Basic Science and Clinical Applications, Marcel Dekker, Inc, New York (2000)).

[2] = test system: ventilated rabbits with ARDS induced by saline lavage; assay: Saline-lavage ventilated rabbit model of ARDS: arterial oxygenation and dynamic compliance; type: in vivo, New Zealand white rabbits; settings: for Oxygenation and lung compliance after instillation (FIG. 1): SP-B mimics 3.0% by weight in 5:3:2 (weight ratio) DPPC:POPC:POPG; for Oxygenation and lung compliance after instillation (FIG. 1) / Oxygenation and lung compliance after instillation (FIG. 2): PBS pH 7.4, 35 mg/mL; for Oxygenation and lung compliance after instillation (FIG. 1) / relative order of pulmonary activity in terms of oxygenation / relative pulmonary activity with respect to lung compliance / Oxygenation and lung compliance after instillation (FIG. 2) / relative order of pulmonary activity in terms of oxygenation and lung compliance: intratracheal 100 mg/kg; for Oxygenation and lung compliance after instillation (FIG. 1) / relative order of pulmonary activity in terms of oxygenation / relative pulmonary activity with respect to lung compliance: over 120 min; for relative order of pulmonary activity in terms of oxygenation / relative pulmonary activity with respect to lung compliance: SP-B mimics 3.0% by weight in 5:3:2 DPPC:POPC:POPG; for Oxygenation and lung compliance after instillation (FIG. 2): SP-C mimics 3.0% by weight in 5:3:2 (weight ratio) DPPC:POPC:POPG; for relative order of pulmonary activity in terms of oxygenation and lung compliance: SP-C mimics 3.0% by weight in 5:3:2 DPPC:POPC:POPG
Description: Saline lavage produces surfactant deficiency, alveolar collapse and lung edema in ventilated rats and rabbits, and is a useful experimental model for human ARDS. A saline-lavage rabbit model for lung injury was thus used to compare synthetic surfactants, with lipids only as negative control. Restoration of lung function was assessed by serial monitoring of gas exchange and lung mechanics. Physiological activity results for selected synthetic SP-B peptides are shown below, and physiological activity results for selected synthetic SP-C peptides are included in following Example 8.
Animal experiments were performed following established protocols approved by the Animal Care and Use Committee at the Los Angeles Biomedical Research Institute at Harbor-UCLA Medical Center. […] In brief, experimental animals were commercially available young adult male New Zealand white rabbits whose respiratory function was followed during mechanical ventilation by measurements of serial arterial blood gases and pulmonary compliance over the first 2 hours after a standardized saline lavage protocol. For this timeframe of study, the model reflected a relatively pure state of surfactant insufficiency in animals with mature lungs. Saline lavage administration was performed after induction of anesthesia, insertion of a venous line in a marginal ear vein, endotracheal intubation and initiation of mechanical ventilation, muscle paralysis, and insertion of a carotid arterial line. Heart rate, arterial blood pressure and rectal temperature were measured continuously. After stabilization on the ventilator, saline lavage was performed with repeated intratracheal instillation and removal of 30 mL of normal saline until the PaO2 dropped below 100 mm Hg (average 3 lavages). Maintenance fluid was provided by a continuous infusion of Lactated Ringer's solution at a rate of 10 ml/kg/h. Edema fluid appearing in the trachea was removed by suctioning. When the PaO2 was stable at less than 100 mm Hg in saline lavaged animals, an experimental or control surfactant mixture was instilled into the trachea at a dose of 100 mg/kg body weight and a concentration of 35 mg/mL. The rabbits were ventilated using a Harvard volume-controlled animal ventilator (tidal volume 7.5 ml/kg, a positive end-expiratory pressure [PEEP] of 3 cm H2O, an inspiratory/expiratory ratio of 1:2, 100% oxygen, and a respiratory rate to maintain a PaCO2 at ˜40 mm Hg). Airway flow and pressures and tidal volume were monitored continuously with a pneumotachograph connected to the endotracheal tube and a pneumotach system. Arterial pH and blood gases were done every 15 minutes. Dynamic lung compliance was calculated by dividing tidal volume/kg body weight by changes in airway pressure (peak inspiratory pressure minus positive end-expiratory pressure) (mL/kg/cmH2O). Animals were sacrificed 2 h after surfactant administration with an overdose of pentobarbital. End-points are pulmonary gas exchange (arterial pH, PaCO2 and PaO2) and pulmonary mechanics (dynamic compliance, postmortem pressure-volume curves). Each treatment group consisted of n=4-9 animals.
The in vivo pulmonary activity of reduced MB DATK and SMB DATK was investigated in comparison with oxidized SMB and MB (positive controls) and lipids alone (negative control) over 120 min, following intratracheal instillation of these surfactants into ventilated rabbits with ARDS induced by saline lavage. Oxidized SMB and MB were used as positive controls, because these SP-B mimics previously indicated high in vivo surfactant activities equal to those of native, full-length porcine SP-B in ventilated rats with ARDS (Walther et al., “Critical Structural and Functional Roles for the N-terminal Insertion Sequence in Surfactant Protein B Analogs,” PLoS One 5:e8672 (2010), which is hereby incorporated by reference in its entirety). […]

For “IPSSPVHLKRLKLLKLLLEEILLKILGALLMGL (SP-C33SS Ion Lock2 K15/E19;E20/K24) [SP-C33ss_ion2]”, the “adsorption, result in words” value [1] was “substantial rapid adsorption”.
In the case of “FGIPFFPVHLKRLLILLLL-CONH2 (FGIPFFPVHLKRLLILLLL-NH2) [Mini-SPCff_2_leu]”, the “adsorption compared with lung surfactant (CLSE in Table 7)” value (“adsorption compared with lung surfactant” below) [1] is reported as “equaling that of lung surfactant”.
With “CWLCRALIKRIQAMIDATKRMLPQLVCRLVLRCS (not fully specified (residues 1, 33, bridges); cysteine pairing not given here) [MB DATK_Red]” the “Oxygenation and lung compliance after instillation (FIG. 1)” value [2] was “increased quickly”, the “relative order of pulmonary activity in terms of oxygenation” value [2] was “reduced SMB DATK˜SMB_Ox˜MB_Ox>reduced MB DATK>Lipids alone” and the “relative pulmonary activity with respect to lung compliance” value [2] was “reduced SMB DATK>SMB_Ox˜reduced MB DATK˜MB_Ox>Lipids alone”. The “adsorption activity relative to that previously reported for MB without the DATK substitution” value ([1]; Table 10 conditions, 3% by weight with 5:3:2 DPPC:POPC:POPG) was “improved”.
For “GIPSSPVHLKRLLIVVVVVELIVKVIVGALLMGL (SP-C SS Ion Lock + L E20/K24) [SP-Css ion-lock]”, the “Oxygenation and lung compliance after instillation (FIG. 2)” value [2] was “increased quickly”, the “relative order of pulmonary activity in terms of oxygenation and lung compliance” value [2] was “SP-C33˜SP-Css ion-lock>SP-Cff>Lipids alone” and the “adsorption, result in words” value [1] was “substantial rapid adsorption”.
With “FPIPLPYCWLCRALIKRIQAMIDATKRMLPQLVCRLVLRCS (not fully specified (residues 8, 40); cysteine pairing not given here) [SMB DATK_Red]” the “arterial oxygenation and dynamic compliance compared with reduced MB DATK” value ([2]; FIG. 1, 3.0% by weight in 5:3:2 DPPC:POPC:POPG) was “significantly higher”, the “Oxygenation and lung compliance after instillation (FIG. 1)” value [2] was “increased quickly” and the “relative order of pulmonary activity in terms of oxygenation” value [2] was “reduced SMB DATK˜SMB_Ox˜MB_Ox>reduced MB DATK>Lipids alone”. For the same substance, the “relative pulmonary activity with respect to lung compliance” value [2] was “reduced SMB DATK>SMB_Ox˜reduced MB DATK˜MB_Ox>Lipids alone”.
For “LGIPFFPSSLKRLLIILLL-CONH2 (LGIPFFPSSLKRLLIILLL-NH2) [Mini-SPCff_dog_leu]”, the “adsorption compared with lung surfactant” value [1] was “equaling that of lung surfactant”.
In the case of “LGIPFFPSSLKRLLIIVVV-CONH2 (LGIPFFPSSLKRLLIIVVV-NH2) [Mini-SPCff_dog]”, the “adsorption compared with lung surfactant” value [1] is reported as “equaling that of lung surfactant”.
For “LGIPCFPSSLKRLLIIVVV-CONH2 (chain 1 LGIPCFPSSLKRLLIIVVV-NH2; chain 2 LGIPCFPSSLKRLLIIVVV-NH2; disulfide I:5-II:5 (inferred)) [Mini-C dog cf_cys5 dimer]”, the “adsorption compared with lung surfactant” value [1] was “equaling that of lung surfactant”.
In the case of “IPSSPVHLKRLKLLLLLLLLILLLILGALLMGL (SP-c33) [previously reported SP-C peptide (Almlen et al. 2007)]”, the “Oxygenation and lung compliance after instillation (FIG. 2)” value [2] is reported as “rapidly increased” and the “relative order of pulmonary activity in terms of oxygenation and lung compliance” value [2] is reported as “SP-C33˜SP-Css ion-lock>SP-Cff>Lipids alone”.
For “GIPFFPVHLKRLLIKVVVEELIVKVIVGALLMGL (SP-C FF Ion Lock2 K15/E19;E20/K24) [SP-C ion-lock2ff]”, the “adsorption, result in words” value [1] was “substantial rapid adsorption”.
